The results in this text go back to patent publication US20050267156A1, “Broadspectrum 2-amino-benzothiazole sulfonamide hiv protease inhibitors” (Tibotec Pharmaceuticals Ltd., priority 2002, published 2005).

Data set [1] deals with mutant HIV strain C. As to the kind of experiment: microbe, parasite or virus in culture. To be noted: for EC50: Human immunodeficiency virus 1, MT4, read-out: pEC50 Strain C, mutant HIV strain C, MT4 cells (converted). The format is cell-based.
Data set [2] relates to mutant HIV strain E. As to the kind of experiment: microbe, parasite or virus in culture. The format is cell-based. To be noted: for EC50: Human immunodeficiency virus 1, MT4, read-out: pEC50 Strain E, mutant HIV strain E, MT4 cells (converted).
Data set [3] concerns mutant HIV strain D. The data set can be described thus: microbe, parasite or virus in culture. The format is cell-based. To be noted: for EC50: Human immunodeficiency virus 1, MT4, read-out: pEC50 Strain D, mutant HIV strain D, MT4 cells (converted).
Data set [4] concerns mutant HIV strain B. As to the kind of experiment: microbe, parasite or virus in culture. The class given is cell-based.
Data set [5] has as its system mutant HIV strain A. As to the kind of experiment: microbe, parasite or virus in culture. The format is cell-based. As to conditions: for EC50: Human immunodeficiency virus 1, MT4, read-out: pEC50 Strain A, mutant HIV strain A, MT4 cells (converted).
In data set [6] the test system is HIV-1 strain LAI. The data set can be described thus: Cellular anti-HIV assay (MT4/MTT), wild type. The class given is cell-based. To be noted: Human immunodeficiency virus 1; wild type HIV-1 strain LAI, MT4 cells; read-out: WT (pEC50) (converted).
A short description of data set [7]: Toxicity on mock-infected cells (MTT). The format is cell-based. To be noted: human.
Data set [8] deals with mutant HIV protease viruses. As to the kind of experiment: Panel of more than 20 mutant proteases. The format is cell-based.
Data set [9] in a line: Pharmacokinetics in dogs. The format is in vivo. As to conditions: dog, blood, po, 10 mpk, or, read-out: Cmax. The protocol:
(§1) The pharmacokinetic properties of some compounds of formula (I) were tested on rats and dogs. The compounds were evaluated in Whistar rats, source Iffa Credo, weighing approximately 350 g. Before dosing the animals were fasted overnight (approximately 12 h fasting period). The compounds were dissolved in DMSO or PEG 400. The results represented in the table concern the results from the oral or intra-peritoneal dosing of the compounds. Blood was sampled at 30 min, 1 h, 2 h, 3 h, no pre-dose sample was taken. The amount of the compound in the biological sample was determined using LC-MS. In the table below “or” means oral dosing, “ip” means intraperitoneal dosing, “mpk” means mg per kilogram.

In data set [10] the test system is mutant HIV strain F. As to the kind of experiment: microbe, parasite or virus in culture. The format is cell-based. As to conditions: Human immunodeficiency virus 1, MT4, read-out: pEC50 Strain F, mutant HIV strain F, MT4 cells (converted).
A short description of data set [11]: Pharmacokinetics in rats. The class given is in vivo, Whistar rats. As to conditions: Whistar, rat, blood, 10 mpk, read-out: Cmax. As to the method: as §1
The mark [12] stands for this setting: FR=EC50 (mutant strain)/EC50 (HIV-1 strain LAI).

Read-outs that look alike come from different tables or passages of the source.

The CC50 is the concentration that lowers cell viability or growth by half. On to `CC(C)CN(C[C@@H](O)[C@H](Cc1ccccc1)NC(=O)OC1COC2OCCC12)S(=O)(=O)c1ccc2nc(N)sc2c1` (stereo partly drawn) [Compound 1, {(1S,2R)-3-[(2-amino-benzothiazole-6-sulfonyl)-isobutyl-amino]-1-benzyl-2-hydroxypropyl}-carbamic acid hexahydro-furo[2,3-b]furan-3-yl ester], for which the “fold resistance Strain C” value in [1] (setting [12]) was found to be 0.8. Further, the EC50 in [1] was 4.17 nM; in [2] it was 3.09 nM; in data set [3] it was 2.24 nM; in [4] (Human immunodeficiency virus 1, MT4, read-out: pEC50 Strain B, mutant HIV strain B, MT4 cells (converted)) it was 3.63 nM; in data set [5], 2.95 nM; in data set [6], 5.5 nM. Moreover, the “fold resistance Strain E” value in [2] (setting [12]) amounted to 0.6. The “fold resistance Strain D” value in data set [3] (setting [12]) was 0.4. Besides, the “fold resistance Strain B” value in data set [4] (setting [12]) came to 0.7. In [5] (setting [12]), the “fold resistance Strain A” value was 0.5. The compound further gave a CC50 at 5 days in data set [7] of 69200 nM. The IC50 was 7.59 nM in [8] (Human immunodeficiency virus 1, read-out: pIC50 for the most resistant mutant (converted)) and 0.741 nM in data set [8] (Human immunodeficiency virus 1, read-out: pIC50 for the most sensitive mutant (converted)).

As usually defined, the Cmax is the peak of the concentration-time curve. `CNc1nc2ccc(S(=O)(=O)N(CC(C)C)C[C@@H](O)[C@H](Cc3ccccc3)NC(=O)OCc3cncs3)cc2s1` [Compound 18, {(1S,2R)-1-benzyl-2-hydroxy-3-[isobutyl-(2-methylamino-benzothiazole-6-sulfonyl)-amino]-propyl}-carbamic acid thiazol-5-ylmethyl ester]: the maximum concentration (Cmax) in [9] (DMSO, results normalized to 10 mpk) stood at 15 ng/mL; in data set [9] (PEG400, results normalized to 10 mpk), 42 ng/mL; in data set [11] (ip, ip, DMSO, results normalized to 10 mpk), 1140 ng/mL; in data set [11] (po, or, DMSO, results normalized to 10 mpk), 396 ng/mL; in data set [11] (po, or, PEG400, results normalized to 10 mpk), 668 ng/mL. Further, the EC50 in data set [1] was 7.41 nM; in [2], 9.12 nM; in data set [10], 148 nM; in data set [3], 21.4 nM; in data set [5], 30.9 nM; in [6] it was 1.91 nM. Besides, the “pEC50 Strain B” value in data set [4] (mutant HIV strain B, MT4 cells) is 8.21. Besides, in [7], the CC50 at 5 days is 85100 nM.
